Source: ChEMBL document CHEMBL1221189, “Structural basis for macrolactonization by the pikromycin thioesterase” (Nat Chem Biol, 2006)
The source made the active and inactive calls. The rule behind the calls is not given here.

Assays:
Streptomyces venezuelae [1] = assay: Inactivation of pikromycin thioesterase in Streptomyces venezuelae assessed as rate of enzymatic hydrolysis of p-nitrophenylpropionate at 2 mM after 50 mins
Streptomyces venezuelae [2] = assay: Inactivation of pikromycin thioesterase in Streptomyces venezuelae assessed as rate of enzymatic hydrolysis of p-nitrophenylpropionate at 2 mM; settings: TDE = time-dependent effect
Streptomyces venezuelae [3] = assay: Inactivation of pikromycin thioesterase in Streptomyces venezuelae assessed as rate of enzymatic hydrolysis of p-nitrophenylpropionate at 2 mM after 6 hrs
Streptomyces venezuelae [4] = assay: Inactivation of pikromycin thioesterase in Streptomyces venezuelae assessed as rate of enzymatic hydrolysis of p-nitrophenylpropionate after 8 hrs

| SMILES | fold change (FC) (Streptomyces venezuelae [1]) | Activity (Streptomyces venezuelae [2]) | Activity (Streptomyces venezuelae [3]) | Activity (Streptomyces venezuelae [4]) |
| --- | --- | --- | --- | --- |
| C[C@@H](CO)C[C@H](C)[C@H](O)[C@@H](C)C(=O)CP(=O)(Oc1ccccc1)Oc1ccccc1 | 2 | tde | Active | – |
| CC[C@H](O)[C@@H](C)C(=O)CP(=O)(Oc1ccccc1)Oc1ccccc1 | – | – | – | Active |
